Source: US8426369B2, “Prevention and treatment of colon cancer” (Rutgers, The State University of New Jersey, priority 2006, dated 2013)

Tests used:
p21 = experiment: Western blot of p21 in HT-29 cells; type: cell-based, human; conditions: HT-29, data not shown
Method: (§1) The cells were incubated with different concentrations of pterostilbene for 1, 2 and 3 days, and cell proliferation was estimated by measuring [^3H]thymidine incorporated into DNA. […] In order to evaluate whether pterostilbene potentiates cell cycle arrest or apoptosis in HT-29 cells, the effect of pterostilbene on the proteins regulating the cell cycle and/or apoptosis pathways was examined. Cells treated with pterostilbene for 9 h or 18 h were harvested and protein samples were analyzed by Western blotting (FIG. 8B).
(§2) The cell culture conditions and the reagents used in this example were described in Example 32. Whole cell extracts were collected after the various treatments and analyzed by western blotting. The protein samples were separated on 4-15% SDS-PAGE gels (Biorad, Hercules, Calif.) followed by transfer to a polyvinylidene fluoride membrane. The membranes were blocked with 5% milk in Tris buffer for 1 h and then incubated with the appropriate primary antibody solutions overnight at 4° C. The membranes were washed with Tris buffer, and incubated with horseradish peroxidase conjugated secondary antibody solutions for 1 h at room temperature.
(§3) The protein bands were visualized using a chemiluminescence based kit from Amersham Biosciences (Buckinghamshire, UK). […]

iNOS mRNA = experiment: Quantitative RT-PCR of cytokine-induced iNOS mRNA in HT-29 cells; type: cell-based, human; conditions: 10 and 30 μM
Method: (§4) The cell culture conditions and the reagents used in this example were described in Example 32. The gene-mediated expression of iNOS and COX-2 are reported to be regulated at both the transcriptional and translational levels. In order to understand the effect of pterostilbene on cytokine-induced expression of proinflammatory enzymes and cytokines, RNA samples after treatment of HT-29 cells with cytokines and/or pterostilbene were analyzed by quantitative RT-PCR for the induction of mRNA levels of iNOS, COX-2, IL-1β, IFN-γ and TNF-α genes.
(§5) To determine the changes of mRNA levels by pterostilbene and cytokines, quantitative RT-PCR analysis was utilized, as described previously (Lee et al., Mol Pharmacol 2006; 69(6):1840-1848). Briefly, the cells were incubated with compounds for indicated period and the cells were then lysed using Trizol to extract RNA. RNA was reverse transcribed into cDNA using a high capacity cDNA archive kit (Applied Biosystems, Foster City, Calif.). The cDNA was used for quantitative PCR which was run on the ABI Prism […] sequence Detection System. The primers for the iNOS, COX-2, IFN-γ, TNF-α, IL-1β and GAPDH were obtained from Applied Biosystems (Foster City, Calif.).

TNF-α mRNA = experiment: Quantitative RT-PCR of cytokine-induced TNF-α mRNA in HT-29 cells; type: cell-based, human
Method: as §4, §5

iNOS = experiment: Cytokine-induced iNOS protein expression in HT-29 cells (Western blot); type: cell-based, human; conditions: HT-29; for inhibition of iNOS expression: with cytokine mixture (each 10 ng/ml), 15 hr
Method: HT-29 human colon adenocarcinoma cells were grown in 10% FBC/DMEM. Cells (about 600,000 cells/well) were plated in 6-well plate and treated with stilbene analogs shown in FIG. 4 (each at 10 μM) for 15 hours together with cytokine mixture comprising TNF-a, IFN0g, and LPS (each at 10 ng/ml). Cell lysates were prepared and subjected to Western Blot analysis.
Human colon carcinoma cell lines HT-29 was obtained from the American Type Culture Collection (Manassas, Va.). The cells were maintained in Dulbecco's modification of Eagle's medium (DMEM) supplemented with 10% FBS and 1% penicillin/streptomycin at 37° C. and 5% CO2. The cytokine mixture, consisting of 10 ng/ml of TNF-α, IFN-γ and LPS, was used to induce iNOS and COX-2, unless otherwise mentioned. The cells were treated with the test compound either alone or in combination with cytokines for different time intervals and harvested for protein or RNA.
as §2
The protein bands were visualized using a chemiluminescence based kit from Amersham Biosciences (Buckinghamshire, UK). The primary antibodies against iNOS, COX-2, IκBα, cyclin D1, c-myc (Santa Cruz Bio-technology, Santa Cruz, Calif.), phospho-STAT3, phospho-Erk1/2, phospho-JNK1/2, phospho-p38, phospho-Akt, phospho-ATF2, phospho-Elk1, PARP (Cell Signaling Technology Inc., Beverly, Mass.) and actin (Sigma, St. Louis, Mo.) and secondary antibodies (Santa Cruz Biotechnology, Santa Cruz, Calif.) were used for probing the abundance of the target protein in the samples.

cleaved PARP = experiment: Western blot of cleaved PARP in HT-29 cells (apoptosis marker); type: cell-based, human; conditions: 9 h or 18 h
Method: as §1, §2, §3

p65 subunit of NF-κB = experiment: Nuclear protein level of p65 subunit of NF-κB in HT-29 cells; type: cell-based, human; conditions: HT-29, data not shown
B16M-F10 melanoma cells = conditions: intravenous administration to mice; cited from earlier work
p-Smad3 = experiment: Activated Smad levels (p-Smad3) in HT-29 cells; type: cell-based, human; conditions: HT-29, data not shown
Text: The significance of the transforming growth factor (TGF-β) pathway in down-regulating iNOS expression by pterostilbene was also investigated since TGF-β is a very potent inhibitor of iNOS and cytokines regulate Smad signaling of the TGF-β pathway. However, there was no effect of pterostilbene on activated Smad levels (p-Smad3) or in inducing TGF-β ligands (data not shown).

IL-1β mRNA = experiment: Quantitative RT-PCR of cytokine-induced IL-1β mRNA in HT-29 cells; type: cell-based, human; conditions: 10 and 30 μM
Method: as §4, §5

SMILES: COc1cc(/C=C/c2ccc(O)cc2)cc(OC)c1 [pterostilbene, (E)-4-(3,5-dimethoxystyryl)phenol]
- induction of p21 (p21): no induction
- iNOS mRNA induction by the cytokine mixture (iNOS mRNA): strongly inhibited
- TNF-α mRNA induction by the cytokine mixture (TNF-α mRNA): weak inhibitory effect
- inhibition of iNOS expression (iNOS; 1 μM): 14%
- inhibition of iNOS expression (iNOS; 10 μM): 61%
- induction of iNOS by the cytokine mixture (iNOS; 30 μM, 9, 12 and 15 h): markedly blocked
- inhibition of iNOS expression (iNOS; 30 μM): 77%
- induction of iNOS by the cytokine mixture, different concentrations (iNOS; different concentrations): dose-dependent manner
- level of cleaved PARP (cleaved PARP): increased
- nuclear protein levels of the p65 subunit of NF-κB (p65 subunit of NF-κB): remained high and unaltered
- metastatic growth of B16M-F10 melanoma cells in the liver (B16M-F10 melanoma cells): inhibited metastatic growth
- activated Smad levels (p-Smad3) (p-Smad3): no effect
- IL-1β mRNA induction by the cytokine mixture (IL-1β mRNA): strongly inhibited
